Reference: patent US20240398738A1, “MANIPULATION OF THE RETINOIC ACID SIGNALING PATHWAY” (THE REGENTS OF THE UNIVERSITY OF CALIFORNIA, priority 2017, published 2024)
“Also recorded” adds a separate entry of the source.

Experiments:
[1] = system: RAR; assay: RAR dual fluorescent reporter (RARE-SV40-GFP / CMV-RFP) in HEK293 cells; format: cell-based, human
[2] = system: retinoic acid receptor β (RARβ); assay: Immunolabeling of RARβ in retinal cross-sections after intravitreal injection; format: in vivo, mouse; settings: 5-6 days after intravitreal ATRA 100 nM versus vehicle
Experimental: The same procedure was carried out for detection of RARβ in mouse retinas following injection of vehicle or ATRA. Slides were incubated with a primary rabbit anti-RARβ antibody (ab53161, Abcam) and detected using an Alexa Fluor-488 conjugated goat anti-rabbit secondary antibody (Life Technologies). […] Retinas were collected 5-6 days following injection with vehicle, ATRA, or ATRA and Liarozole.
Imaging and Analysis. […] RARE double reporter virus in rats, RARb immunolabeling and TUNEL assay were imaged using a Laser Scanning Confocal Microscope (LSM 780 NLO, Zeiss), using Zen software and default configuration for RFP, GFP, AF488 and nuclear-ID detection.

[3] = system: RGCs in WT retina; assay: YO-PRO-1 loading assay (dye permeability of RGCs) in WT retina after intravitreal injection; format: in vivo, mouse
Experimental: Intravitreal Injections. Before injection, mice were anesthetized with isoflurane (2%) and their pupils were dilated with tropicamide (1%) and phenylephrine (2.5%). Proparacaine (0.5%) was used as a topical analgesic. Genteal was applied under a glass coverslip to keep the cornea lubricated. An incision was made through the sclera below the ora serrata with a 30G needle and ˜1 μl of solution was injected into the vitreous with a blunt-ended 33G Hamilton syringe. After injection, the antibiotic tobramycin (0.3%) was applied to the eye. Final drug concentrations after intravitreal injection were: all-trans retinoic acid (ATRA, 100 nM), liarozole (100 μM), diethylaminobenzaldehyde (DEAB, 20 μM), citral (50 μM), BMS-493 (500 nM), and retinaldehyde (1 μM). The above values correspond to the final concentration in the eye after injecting 1 μl of drug accounting for a 5-fold dilution. An injection of PBS including 1% DMSO was used as vehicle control.
Yo-PRO-1 Loading Assay. After dissection, retinas were cut into thirds and mounted on a windowed nitrocellulose filter paper. Retinas were treated with 200 nM Yo-PRO-1 (Life Technologies) in oxygenated ACSF for 15 minutes, followed by treatment and then treated with nuclear ID (Enzo Life Sciences) at a 1:500 dilution for 3 minutes. ACSF was perfused continuously at 3 ml/min for a period of 5 minutes to wash away excess dye. In experiments employing TNP-ATP (200 μm), the retinas was pretreated with the compound for ten minutes before beginning YO-PRO-1 treatment.
Image analysis. All image analysis was performed using ImageJ or Fiji software (55,56). Yo-PRO-1 loading assay, ROIs were manually selected using the nuclear-ID channel based upon morphological characteristics. This was performed after computationally flattening the retina by performing a maximum Z projection onto a single plane. Following this, a background subtraction was performed with a rolling radius of 50 pixels. Cells identified as vascular endothelial cells or pericytes were not included in the analysis. This was confirmed using transillumination. A threshold for YO-PRO-1 loading was established by measuring the level of autofluorescence of untreated retinas in each channel and finding a baseline value with +2SD being the threshold for a YO-PRO-1 positive cell. Nuclear-ID was used to count the total number of cells within a field of view. The percentage of cells above the threshold was then calculated for comparison. For analysis of RARE double reporter virus assay, ROIs were manually selected on the RFP channel first and then superimposed to the GFP channel. Single cell values for both RFP and GFP were filtered by using a RFP minimum threshold established in naive unlabeled retinas.
Injections. Intravitreal injections: Adult mice and rats were intravitreally injected with drugs or viruses. Before injection, animals were anesthetized with isoflurane (2%) and their pupils were dilated with tropicamide (1%) and phenylephrine (2.5%). Proparacaine (0.5%) was used as a topical analgesic. Genteal was applied under a glass coverslip to keep the cornea lubricated. An incision was made through the sclera below the ora serrata with a 30G needle. Solutions were injected into the vitreous with a blunt-ended 33G Hamilton syringe. After injection, the antibiotic tobramycin (0.3%) was applied to the eye. Final drug concentrations (after 5-fold dilution in the vitreous) were: 100 nM all-trans retinoic acid (ATRA), 100 μM liarozole (24), 20 μM diethylaminobenzaldehyde (DEAB) (28,93), 50 μM citral, 500 nM BMS 493 (85), 1 μM retinaldehyde, and vehicle comprising of 1× phosphate buffered saline (PBS) containing 1% dimethyl sulfoxide (DMSO). Intravitreal injections were performed using AAV2 serotype only. WT and rd1 mice were injected with the RAR-reporter virus or the RARDN virus, at age 1-1.5 month-old. WT and s334ter rats were injected with the RAR-reporter virus at age 3-4 month-old. Final volume of injections was 1-1.5 μL for mice and 5 μL for rats. […]

SMILES	GFP expression of the RAR reporter ([1]; HEK293, ATRA 1 μM, 48 hrs)	increase in GFP to RFP ratio ([1]; HEK293, different doses and times of ATRA, with 100 μM liarozole)	RARβ level in RGCs / ganglion cell layer [2]	increase of YO-PRO-1 labeling ([3]; WT mice, 3-7 days after intravitreal injection, versus vehicle)	percentage of YO-PRO-1 positive cells ([3]; WT mice, intravitreal injection 3-7 days before, ATRA 100 nM, liarozole 100 μM, retinaldehyde 1 μM, DEAB 20 μM, mean±SEM)	reversibility of ATRA-induced YO-PRO-1 loading ([3]; WT retina, intravitreal ATRA 100 nM)	Yo-Pro-1 labeling of WT-RGCs, result in words ([3]; WT retina, substance injected intravitreally alone)	percentage of YO-PRO-1 positive cells, ATRA-induced labeling with blocker ([3]; WT mice injected with ATRA, TNP-ATP bath-applied ex vivo or BMS-493 co-injected, mean±SEM)
CC1=C(/C=C/C(C)=C/C=C/C(C)=C/C(=O)O)C(C)(C)CCC1 [ATRA, all-trans retinoic acid]	significant increase in GFP expression only following ATRA treatment; also recorded: induced GFP expression	dose- and time-dependent	significant increase in RARβ; also recorded: upregulation of the β-subunit of RAR	2 fold	15.80±3.10%	reversible; also recorded: disappeared 6 weeks after injection	significantly increased the fraction of cells incorporating Yo-Pro-1	
CC1(C)CC=C(C#Cc2ccccc2)c2cc(/C=C/c3ccc(C(=O)O)cc3)ccc21 [BMS-493]								5.74±1.54%
